The assay has as its target T1, α-amylase (hog pancreas) (Sus scrofa, UniProt P00690).
T1 construct: gene AMY2
T1 sequence (P00690 16-511): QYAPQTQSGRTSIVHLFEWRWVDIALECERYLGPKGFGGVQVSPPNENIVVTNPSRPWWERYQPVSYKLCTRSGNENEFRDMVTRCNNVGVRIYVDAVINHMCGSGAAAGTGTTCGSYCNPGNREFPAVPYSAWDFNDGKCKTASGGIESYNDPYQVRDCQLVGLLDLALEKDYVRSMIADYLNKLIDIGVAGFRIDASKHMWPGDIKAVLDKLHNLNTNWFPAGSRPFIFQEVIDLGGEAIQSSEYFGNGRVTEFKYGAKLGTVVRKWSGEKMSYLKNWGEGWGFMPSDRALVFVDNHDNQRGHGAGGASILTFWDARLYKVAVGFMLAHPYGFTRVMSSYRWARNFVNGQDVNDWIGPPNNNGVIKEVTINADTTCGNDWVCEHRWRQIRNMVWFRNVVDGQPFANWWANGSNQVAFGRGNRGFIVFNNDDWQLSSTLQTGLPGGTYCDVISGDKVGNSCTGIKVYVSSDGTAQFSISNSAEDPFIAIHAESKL
Briefly: DNS starch hydrolysis assay with hog pancreas α-amylase; Lineweaver–Burk, Dixon and Eisenthal–Cornish-Bowden kinetics. In kind it is biochemical.

Take `O=C(/C=C/c1ccc(O)cc1)O[C@@H]1CC(O)(C(=O)O)C[C@@H](O)C1O` (stereo partly shown) [5-CQA, 5-O-p-coumaroylquinic acid]: the IC50 (as a rule, the concentration that gives 50% inhibition) worked out at 69.4 µM.

The record behind these values is article PMC10742785, “Screening and Characterization of an α-Amylase Inhibitor from Carya cathayensis Sarg. Peel” (Foods, 2023).
